Assay results reported in US6582662B1, “Devices and methods for the performance of miniaturized homogeneous assays” (Tecan Trading AG, priority 1999, dated 2003).

Biological target: alkaline phosphatase
Test: Enzyme inhibition assay on microfluidic disc (alkaline phosphatase / PNPP, reflectance at 430 nm)
Format: biochemical
Conditions: end-point measurement 2 minutes after fluid pumped into detection chambers; dose-response fitted to Langmuir isotherm; substrate PNPP 0.5 mM; alkaline phosphatase 1 mg/mL; 0.1M glycine, 0.5 mM MgCl2; read-out: inhibition constant
Description: The platform shown in FIGS. 1 through 6 was used to perform 96 simultaneous enzyme inhibition assays as model homogeneous assays. In an enzyme inhibition assay, the effect of a compound present in a first fluid (“A”) upon the capacity of an enzyme present in a second fluid (fluid “B”) to catalyze a reaction, typically of a substrate in a third fluid (“C”) is determined. The reaction was chosen to give a change in a readily-measured parameter of the fluid, such as its optical density, or to produce a fluorescent moiety. When no inhibitor was present in fluid A, mixing solution A with enzyme solution B had no effect: enzyme activity detected in this assay was the maximum detected and provided the largest change in the measured parameter. However, if an inhibitor was present in fluid A, mixing fluid A with fluid B resulted, after a sufficient time in a chemical reaction or other change induced by the inhibitor in most or all of the enzyme molecules, rendering them incapable of catalyzing the desired reaction. If this solution was mixed with the substrate solution, little or no change in the measured parameter was seen.
The system chosen to model homogeneous assays consisted of theophylline as inhibitor, alkaline phosphatase as the enzyme, and p-nitrophenol phosphate (PNPP) as the substrate. […]

Cn1c(=O)c2[nH]cnc2n(C)c1=O [theophylline]
Ki: 9.7 ± 0.9 mM
